This is an account of results in patent US7812047B2, “4-imidazolines” (Hoffman-La Roche Inc., priority 2007, dated 2010).

One may read the Ki as a measure of affinity in units of concentration, obtained from inhibition or displacement. Lower therefore signals tighter binding. Broadly, the Kd is the constant that tells how readily two partners part at equilibrium.

T1 sequence (Q923Y8 whole entry): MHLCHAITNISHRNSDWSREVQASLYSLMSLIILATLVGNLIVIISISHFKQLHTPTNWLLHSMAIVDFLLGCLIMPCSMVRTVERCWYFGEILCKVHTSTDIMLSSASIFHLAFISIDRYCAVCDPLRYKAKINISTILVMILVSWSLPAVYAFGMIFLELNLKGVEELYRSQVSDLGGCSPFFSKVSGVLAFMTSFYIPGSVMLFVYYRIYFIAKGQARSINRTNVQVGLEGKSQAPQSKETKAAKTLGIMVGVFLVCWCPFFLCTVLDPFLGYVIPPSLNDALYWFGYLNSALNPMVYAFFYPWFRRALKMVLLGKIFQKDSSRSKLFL

One assay addresses T1, TAAR1 (Mus musculus, UniProt Q923Y8).
T1 construct: expressed in transfected cells; host or cells: HEK293 cells (ATCC CRL-1573), stably transfected with pIRESneo2 expression plasmid; membranes prepared
The assay is described as follows: Radioligand binding assay on membranes of HEK293 cells stably expressing TAAR1. The note with it: mouse TAAR1; radioligand [3H]-rac-2-(1,2,3,4-tetrahydro-1-naphthyl)-2-imidazoline, 4° C., 30 min. As to the method: For the construction of expression plasmids the coding sequences of human, rat and mouse TAAR 1 were amplified from genomic DNA essentially as described by Lindemann et al.. The Expand High Fidelity PCR System (Roche Diagnostics) was used with 1.5 mM Mg^2+ and purified PCR products were cloned into pCR2.1-TOPO cloning vector (Invitrogen) following the instructions of the manufacturer. PCR products were subcloned into the pIRESneo2 vector (BD Clontech, Palo Alto, Calif.), and expression vectors were sequence verified before introduction in cell lines.
HEK293 cells (ATCC # C.RL-1573) were cultured essentially as described Lindemann et al. (2005). For the generation of stably transfected cell lines HEK293 cells were transfected with the pIRESneo2 expression plasmids containing the TAAR coding sequences (described above) with Lipofectamine 2000 (Invitrogen) according to the instructions of the manufacturer, and 24 hrs post transfection the culture medium was supplemented with 1 mg/ml G418 (Sigma, Buchs, Switzerland). After a culture period of about 10 d clones were isolated, expanded and tested for responsiveness to trace amines (all compounds purchased from Sigma) with the cAMP Biotrak Enzyme immunoassay (EIA) System (Amersham) following the non-acetylation EIA procedure provided by the manufacturer.
Cells at confluence were rinsed with ice-cold phosphate buffered saline without Ca^2+ and Mg^2+ containing 10 mM EDTA and pelleted by centrifugation at 1000 rpm for 5 min at 4° C. The pellet was then washed twice with ice-cold phosphate buffered saline and cell pellet was frozen immediately by immersion in liquid nitrogen and stored until use at −80° C. Cell pellet was then suspended in 20 ml HEPES-NaOH (20 mM), pH 7.4 containing 10 mM EDTA, and homogenized with a Polytron (PT 3000, Kinematica) at 10,000 rpm for 10 s. The homogenate was centrifuged at 48,000×g for 30 min at 4° C. and the pellet resuspended in 20 ml HEPES-NaOH (20 mM), pH 7.4 containing 0.1 mM EDTA (buffer A), and homogenized with a Polytron at 10,000 rpm for 10 s. The homogenate was then centrifuged at 48,000×g for 30 min at 4° C. and the pellet resuspended in 20 ml buffer A, and homogenized with a Polytron at 10,000 rpm for 10 s. Protein concentration was determined by the method of Pierce (Rockford, Ill.). The homogenate was then centrifuged at 48,000×g for 10 min at 4° C., resuspended in HEPES-NaOH (20 mM), pH 7.0 including MgCl2 (10 mM) and […] homogenized with a Polytron at 10,000 rpm for 10 s.
Binding assay was performed at 4° C. in a final volume of 1 ml, and with an incubation time of 30 min. The radioligand [^3H]-rac-2-(1,2,3,4-tetrahydro-1-naphthyl)-2-imidazoline was used at a concentration equal to the calculated Kd value of 60 nM to give a bound at around 0.1% of the total added radioligand concentration, and a specific binding which represented approximately 70-80% of the total binding. Non-specific binding was defined as the amount of [^3H]-rac-2-(1,2,3,4-tetrahydro-1-naphthyl)-2-imidazoline bound in the presence of the appropriate unlabelled ligand (10 μM). Competing ligands were tested in a wide range of concentrations […]. […] Each experiment was performed in duplicate. All incubations were terminated by rapid filtration through UniFilter-96 plates (Packard Instrument Company) and glass filter GF/C, pre-soaked for at least 2 h in polyethylenimine 0.3%, and using a Filtermate 96 Cell Harvester (Packard Instrument Company). The tubes and filters were then washed 3 times with 1 ml aliquots of cold buffer B. Filters were not dried and soaked in Ultima gold (45 μl/well, Packard Instrument Company) and bound radioactivity was counted by a TopCount Microplate Scintillation Counter (Packard Instrument Company).
The compound `Clc1ccc(CCC2CNC=N2)cc1` (racemic) [Example 10, rac-4-[2-(4-Chloro-phenyl)-ethyl]-4,5-dihydro-1H-imidazole or tautomer] registered a Ki of 0.327 µM.

For `CCc1cccc2cccc(CC3CNC=N3)c12` (racemic) [Example 6, (RS)-4-(8-Ethyl-naphthalen-1-ylmethyl)-4,5-dihydro-1H-imidazole or tautomer], the inhibitory constant (Ki) came out at 0.078 µM.

The compound `C1=NC(CCc2ccccc2)CN1` (racemic) [Example 3, rac-4-Phenethyl-4,5-dihydro-1H-imidazole or tautomer] yielded a Ki of 0.06 µM.

Regarding `CN(CC1CN=CN1)c1ccccc1` (stereo not shown) [Example 7, (4,5-Dihydro-3H-imidazol-4-ylmethyl)-methyl-phenyl-amine or tautomer], the affinity corresponds to a Ki of 0.182 µM.

With `CCN(CC1CN=CN1)c1ccccc1` (racemic) [Example 4, rac-(4,5-Dihydro-3H-imidazol-4-ylmethyl)-ethyl-phenyl-amine or tautomer], the Ki is 0.253 µM.

`C1=NC(Cc2cccc3ccccc23)CN1` (racemic) [Example 2, rac-4-Naphthalen-1-ylmethyl-4,5-dihydro-1H-imidazole or tautomer] returned a Ki of 0.005 µM.

The same assay, now with this note: radioligand binding assay; species not stated; read-out: calculated Kd value of the radioligand.
For `c1ccc2c(c1)CCCC2C1=NCCN1` (racemic) [[^3H]-rac-2-(1,2,3,4-tetrahydro-1-naphthyl)-2-imidazoline, reference compound], the dissociation constant (Kd) was 60 nM.
